Patent publication US11357779B2 (G1 Therapeutics, Inc., priority 2018, dated 2022)
Read-outs that look alike come from different tables or passages of the source.

Test: Plasma concentration versus time of Compound I and metabolite Compound III in patients dosed QD or BID with Form B of Compound II plus fulvestrant
Assay type: in vivo, human
Conditions: human, plasma, oral, 650 mg; for concentration at 8 day: Day 8; for concentration at 15 day: Day 15; for concentration at 22 day: Day 22; for concentration at 0 h: Day 29, 0.0 h; for concentration at 1 h: Day 29, 1.0 h; for concentration at 2 h: Day 29, 2.0 h; for concentration at 3 h: Day 29, 3.0 h; for concentration at 4 h: Day 29, 4.0 h; for concentration at 6 h: Day 29, 6.0 h
Excerpt: Patients were enrolled into 1 of 2 parallel, independently operating, dose-escalation dosing cohorts with Form B of Compound II administered continuously either once daily (QD) or twice daily (BID) with food with fixed-dose fulvestrant (intramuscularly every 14 days for the first three injections and then every 28 days). Pre- or perimenopausal patients also received goserelin for the duration of study treatment. A […] agonist was started at least 28 days before the first dose of Form B, and those patients who were taking another LHRH agonist were switched to goserelin on Day 1. Patients were split into […] cohorts providing once a day (QD) dosing of 200 mg, 300 mg, 400 mg, 500 mg, or 650 mg of Form B, or twice a day (BID) dosing of 100 mg, 150 mg, or 200 mg of Form B. The second dose in BID cohorts was not administered in the evening until at least 12 hours after the initial morning dose of Form B. The dosing cohorts for Form B of Compound II are provided in Table 1.
Blood samples were collected at the following time points relative to the morning dose of Form B at Day 1 and at Day 29: pre-dose (0 hour) and 1, 2, 3, 4, 6, 8, 10, 12 (prior to the evening dose in the BID cohorts), and 24 (prior to the next day's morning dose) hours after dosing. A 5-minute time window was allowed for samples collected between the predose and 3 hours after Form B dosing. A 15-minute window was allowed for samples collected between 4 to 12 hours after Form B dosing. A 1-hour window was allowed for the sample collected 24 hours after Form B dosing. Blood samples for Compound I PK trough levels were collected pre-dose at Day 8, Day 15, and Day 22 prior to the morning administration of Compound I. Plasma concentrations of Compound I and its metabolite, Compound III, were measured using validated methods.
Analysis of plasma concentration versus time data for calculation of standard pharmacokinetic (PK) parameters following oral administration was conducted using Phoenix WinNonlin version 6.3 using actual blood sampling times.

[1] = Cohort 5, 650 mg QD of Form B, read-out: Trough Compound I Concentration, Max
[2] = Cohort 5, 650 mg QD of Form B, read-out: Trough Compound I Concentration, Mean
[3] = Cohort 5, 650 mg QD of Form B, read-out: Trough Compound I Concentration, Median
[4] = Cohort 5, 650 mg QD of Form B, read-out: Trough Compound I Concentration, Min
[5] = Cohort 5, 650 mg QD of Form B, read-out: Compound I Concentration, Max
[6] = Cohort 5, 650 mg QD of Form B, read-out: Compound I Concentration, Mean
[7] = Cohort 5, 650 mg QD of Form B, read-out: Compound I Concentration, Median
[8] = Cohort 5, 650 mg QD of Form B, read-out: Compound I Concentration, Min

## CC(C)N1CCN(c2ccc(Nc3ncc4cc5n(c4n3)C3(CCCCC3)CNC5=O)nc2)CC1 [Compound I, 2′-((5-(4-isopropylpiperazin-1-yl)pyridin-2-yl)amino)-7′,8′-dihydro-6′H-spiro[cyclohexane-1,9′-pyrazino[1′,2′:1,5]pyrrolo[2,3-d]pyrimidin]-6′-one]
650 mg QD of Form B, Day 1, 8.0 h, Median, read-out: Compound I Concentration
  concentration at 8 h: 60.3 ng/mL
650 mg QD of Form B, Day 1, 10.0 h, Mean, read-out: Compound I Concentration
  concentration at 10 h: 48.4 ng/mL
650 mg QD of Form B, Day 1, 10.0 h, Median, read-out: Compound I Concentration
  concentration at 10 h: 47.9 ng/mL
650 mg QD of Form B, Day 1, 12.0 h, Mean, read-out: Compound I Concentration
  concentration at 12 h: 37.4 ng/mL
650 mg QD of Form B, Day 1, 12.0 h, Median, read-out: Compound I Concentration
  concentration at 12 h: 37.3 ng/mL
650 mg QD of Form B, Day 1, […], Mean, read-out: Compound I Concentration
  concentration at 24 h: 17.1 ng/mL
650 mg QD of Form B, Day 1, […], Median, read-out: Compound I Concentration
  concentration at 24 h: 16 ng/mL
[1]
  concentration at 8 day: 43.9 ng/mL
  concentration at 15 day: 30.7 ng/mL
  concentration at 22 day: 43.7 ng/mL
[2]
  concentration at 8 day: 28.9 ng/mL
  concentration at 15 day: 25.7 ng/mL
  concentration at 22 day: 30.3 ng/mL
[3]
  concentration at 8 day: 28.3 ng/mL
  concentration at 15 day: 27.4 ng/mL
  concentration at 22 day: 24 ng/mL
[4]
  concentration at 8 day: 17 ng/mL
  concentration at 15 day: 19.1 ng/mL
  concentration at 22 day: 23.3 ng/mL
[5]
  concentration at 0 h: 28.9 ng/mL
  concentration at 1 h: 29.6 ng/mL
  concentration at 2 h: 34.9 ng/mL
  concentration at 3 h: 39.5 ng/mL
  concentration at 4 h: 43.8 ng/mL
  concentration at 6 h: 79.3 ng/mL
[6]
  concentration at 0 h: 20.9 ng/mL
  concentration at 1 h: 20.9 ng/mL
  concentration at 2 h: 25.9 ng/mL
  concentration at 3 h: 28.4 ng/mL
  concentration at 4 h: 33.1 ng/mL
  concentration at 6 h: 58.8 ng/mL
[7]
  concentration at 0 h: 22.5 ng/mL
  concentration at 1 h: 20.9 ng/mL
  concentration at 2 h: 25.9 ng/mL
  concentration at 3 h: 28.4 ng/mL
  concentration at 4 h: 33.1 ng/mL
  concentration at 6 h: 58.8 ng/mL
[8]
  concentration at 0 h: 11.4 ng/mL
  concentration at 1 h: 12.1 ng/mL
  concentration at 2 h: 16.8 ng/mL
  concentration at 3 h: 17.2 ng/mL
  concentration at 4 h: 22.3 ng/mL
  concentration at 6 h: 38.2 ng/mL
Cohort 5, 650 mg QD of Form B, Day 29, 8.0 h, read-out: Compound I Concentration, Max
  concentration at 8 h: 88.7 ng/mL
Cohort 5, 650 mg QD of Form B, Day 29, 8.0 h, read-out: Compound I Concentration, Mean
  concentration at 8 h: 66 ng/mL
Cohort 5, 650 mg QD of Form B, Day 29, 8.0 h, read-out: Compound I Concentration, Median
  concentration at 8 h: 66 ng/mL
Cohort 5, 650 mg QD of Form B, Day 29, 8.0 h, read-out: Compound I Concentration, Min
  concentration at 8 h: 43.2 ng/mL
Cohort 5, 650 mg QD of Form B, Day 29, 10.0 h, read-out: Compound I Concentration, Max
  concentration at 10 h: 78.2 ng/mL
Cohort 5, 650 mg QD of Form B, Day 29, 10.0 h, read-out: Compound I Concentration, Mean
  concentration at 10 h: 58.1 ng/mL
Cohort 5, 650 mg QD of Form B, Day 29, 10.0 h, read-out: Compound I Concentration, Median
  concentration at 10 h: 58.1 ng/mL
Cohort 5, 650 mg QD of Form B, Day 29, 10.0 h, read-out: Compound I Concentration, Min
  concentration at 10 h: 37.9 ng/mL
Cohort 5, 650 mg QD of Form B, Day 29, 12.0 h, read-out: Compound I Concentration, Max
  concentration at 12 h: 63.2 ng/mL
Cohort 5, 650 mg QD of Form B, Day 29, 12.0 h, read-out: Compound I Concentration, Mean
  concentration at 12 h: 46.3 ng/mL
Cohort 5, 650 mg QD of Form B, Day 29, 12.0 h, read-out: Compound I Concentration, Median
  concentration at 12 h: 46.3 ng/mL
Cohort 5, 650 mg QD of Form B, Day 29, 12.0 h, read-out: Compound I Concentration, Min
  concentration at 12 h: 29.4 ng/mL
Cohort 5, 650 mg QD of Form B, Day 29, […], read-out: Compound I Concentration, Max
  concentration at 24 h: 27.8 ng/mL
Cohort 5, 650 mg QD of Form B, Day 29, […], read-out: Compound I Concentration, Mean
  concentration at 24 h: 24.3 ng/mL
Cohort 5, 650 mg QD of Form B, Day 29, […], read-out: Compound I Concentration, Median
  concentration at 24 h: 24.3 ng/mL
Cohort 5, 650 mg QD of Form B, Day 29, […], read-out: Compound I Concentration, Min
  concentration at 24 h: 20.7 ng/mL
